Laboratory results as given in PMC4731787, “Structural basis for the recognition of two consecutive mutually interacting DPF motifs by the SGIP1 μ homology domain” (Scientific Reports, 2016).
Like-named read-outs stand apart in the source and are kept apart here. GST = glutathione S-transferase fusion tag

T1: SGIP1 μHD (residues 552 to 828) (Homo sapiens, UniProt Q9BQI5)
T1 construct: the SGIP1 μHD (residues 552 to 828); GST (N, cleaved yes); made in house; host or cells: Escherichia coli BL21-Gold (DE3) or Rosetta2
T1 sequence (Q9BQI5 552-828): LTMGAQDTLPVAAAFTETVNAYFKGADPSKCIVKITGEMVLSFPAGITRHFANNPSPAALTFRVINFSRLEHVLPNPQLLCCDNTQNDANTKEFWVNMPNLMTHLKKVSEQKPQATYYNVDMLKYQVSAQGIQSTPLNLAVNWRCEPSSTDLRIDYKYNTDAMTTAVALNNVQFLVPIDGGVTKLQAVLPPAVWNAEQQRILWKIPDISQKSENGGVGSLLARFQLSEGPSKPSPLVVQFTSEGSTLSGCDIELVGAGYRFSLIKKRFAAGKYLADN

T2: SGIP1 µ homology domain (µHD), residues 552 to 828 (human, UniProt Q9BQI5-1 552-828)
T2 construct: pGEX-6P-1 construct cut with 3C protease; also called SGIP1 µHD; human SGIP1 µHD (aa552–828); source: E. coli BL21-Gold (DE3) or Rosetta2, purified (Glutathione Sepharose 4B, 3C protease cleavage, Superdex 200)
T2 sequence (looked up): T1 sequence (Q9BQI5 552-828)

B1: Eps15-632–644 (peptide)
peptide: Ac-YKDDPFGKIDPFGG-NH2
notes: artificial N-terminal Tyr; human Eps15 residues 632-644; source: synthetic peptide (Eurofins Genomics)
B2: Eps15-628–644 (peptide)
peptide: Ac-YSDPFKDDPFGKIDPFGG-NH2
notes: artificial N-terminal Tyr; source: synthetic peptide (Eurofins Genomics)
B3: Eps15-622–637 (peptide)
peptide: Ac-YSDPFVGSDPFKDDPFG-NH2
notes: as for B2
B4: Eps15-628–639 (peptide)
peptide: Ac-YSDPFKDDPFGKI-NH2
notes: as for B2
B5: Eps15-645–654 (peptide)
peptide: Ac-YDPFKGSDPFA-NH2
notes: extra (artificial) N-terminal Tyr residue, to facilitate the concentration determination by absorbance; source: synthetic peptide (Eurofins Genomics)
B6: Eps15-618–648 (domain or fragment, human)
chain: GPLGSYDFFQSDPFVGSDPFKDDPFGKIDPFGGDPFK
notes: source: E. coli, expressed and purified in the same manner as the SGIP1 µHD
B7: Eps15-632–654 (peptide)
peptide: Ac-YKDDPFGKIDPFGGDPFKGSDPFA-NH2
notes: as for B2
B8: GST-Eps15-530–594: GST-tagged Eps15 fragment, residues 530–594, 0 DPF motifs (protein)
chain: {GST}-STSSSETANLNEHVEGQSNLESEPIHQESPARSSPELLPSGVTDENEVTTAVTEKVCSELDNNRH
B9: GST-Eps15-595–660: GST-tagged Eps15 fragment, residues 595–660, 7 DPF motifs (protein, UniProt P42566 595-660, looked up, fragment)
chain: {GST}-SKEEDPFNVDSSSLTGPVADTNLDFFQSDPFVGSDPFKDDPFGKIDPFGGDPFKGSDPFASDCFFR
B10: Eps15-640–649 (peptide)
peptide: Ac-YDPFGGDPFKG-NH2
notes: as for B5
B11: Eps15-640–649D640N (peptide)
peptide: Ac-YNPFGGDPFKG-NH2
notes: as for B2
B12: Eps15-640–649D640E (peptide)
peptide: Ac-YEPFGGDPFKG-NH2
notes: as for B2
B13: Eps15-640–649F642W (peptide)
peptide: Ac-YDPWGGDPFKG-NH2
notes: as for B2
B14: Eps15-640–649D645N (peptide)
peptide: Ac-YDPFGGNPFKG-NH2
notes: as for B2

How the values were obtained:
[1] = biological target: T1, SGIP1 μHD (residues 552 to 828); experiment: ITC of Eps15 fragments with the SGIP1 μHD; type: binding; conditions: for Kd: 50 mM Tris-HCl pH 8.0, 50 mM NaCl, global fit of two runs
Description: For the majority of the ITC experiments, the SGIP1 μHD, its mutants, or the FCHo1 μHD, in 50 mM Tris-HCl buffer (pH 8.0) containing 50 mM NaCl, was loaded in the sample cell, in a volume of 1.42 ml, and titrated with various Eps15-derived fragments or peptides in the same buffer, with an initial 5 μl injection and subsequent 10 μl injections, for a total of 25 injections. The titrations were performed while the samples were stirred at 310 r.p.m. at 25 °C. Each injection was followed by an interval of 4 min, to allow baseline stabilization. For the other ITC experiments indicated in Supplementary Table 2, the Eps15-derived fragments or peptides in the sample cell were titrated with the SGIP1 or FCHo1 μHD. All ITC experiments were performed on a VP-ITC microcalorimeter (MicroCal, LLC) and repeated twice, and the data were processed with the program NITPIC[42]. The two data sets from each ITC experiment were analyzed by global weighted least-squares fitting with the program SEDPHAT[43]. Figures for the ITC data were created with the program GUSSI (http://biophysics.swmed.edu/MBR/software.html). To obtain the values of the traditional stoichiometric parameter N in our ITC data analyses (Supplementary Table 2), we used the values of the parameters of the incompetent fractions of proteins and ligands. […] The values of the incompetent fractions are between 0 and 1, whereas the other parameter affecting the traditional parameter N, the number of sites, was fixed as 1 and 2, for the single- and two-site models, respectively. Thus, in the two-site model, the values of N for the first and second sites are identical in our ITC data analyses (Supplementary Table 2).

[2] = biological target: T2, SGIP1 µ homology domain (µHD), residues …; experiment: ITC; µHD, µHD mutant or α-adaptin appendage domain in the sample cell, titrated with the Eps15 fragment or peptide; 50 mM Tris-HCl (pH 8.0), 50 mM NaCl, 25 °C; VP-ITC; two data sets fitted globally (NITPIC, SEDPHAT); single-site model; conditions: both partners purified
[3] = 25 °C, μHD in cell titrated with fragment, single-site model
[4] = 25 °C, μHD in cell titrated with fragment, single-site model, ± 68.3% confidence interval
[5] = μHD in cell titrated with fragment, single-site model, ± 68.3% confidence interval
[6] = 25 °C, μHD in sample cell titrated with Eps15 fragment, single-site model, ± 68.3% confidence interval
[7] = 25 °C, fragment in cell titrated with μHD, two-site model, first site
[8] = 25 °C, fragment in cell titrated with μHD, two-site model, second site

Molecule | -TΔS [1, 3] [kcal/mol] | ΔG [1, 3] [kcal/mol] | ΔH [1, 4] [kcal/mol] | Kd [2] [µM] | other results
Ac-YDPFGGNPFKG-NH2 [Eps15-640–649D645N] | -1.138 | -5.642 | -4.504 ± 0.155 | – | –
Ac-YDPFKGSDPFA-NH2 [Eps15-645–654] | 3.566 | -6.344 | -9.91 ± 0.683 | – | N (binding ratio of Eps15 fragment to μHD) [1, 5]: 0.75 ± 0.02
Ac-YDPWGGDPFKG-NH2 [Eps15-640–649F642W] | 2.227 | -4.965 | -7.192 ± 0.527 | – | –
Ac-YEPFGGDPFKG-NH2 [Eps15-640–649D640E] | -0.851 | -4.759 | -3.908 ± 0.595 | – | –
Ac-YKDDPFGKIDPFGG-NH2 [Eps15-632–644] | -0.071 | -5.584 | -5.513 ± 0.12 | – | –
Ac-YKDDPFGKIDPFGGDPFKGSDPFA-NH2 [Eps15-632–654] | 1.453 | -7.491 | -8.944 ± 0.142 | – | N (binding ratio of Eps15 fragment to μHD) [1, 5]: 0.70 ± 0.01
Ac-YNPFGGDPFKG-NH2 [Eps15-640–649D640N] | -0.585 | -5.441 | -4.856 ± 0.193 | – | –
Ac-YSDPFKDDPFGKI-NH2 [Eps15-628–639] | 1.528 | -4.882 | -6.41 ± 0.646 | – | –
Ac-YSDPFKDDPFGKIDPFGG-NH2 [Eps15-628–644] | 1.615 | -6.404 | -8.019 ± 0.169 | – | binding to the SGIP1 μHD (in words) [1]: significantly weaker affinity than Eps15-622–637 and Eps15-640–654; N (binding ratio of Eps15 fragment to μHD) [1, 5]: 0.76 ± 0.01
Ac-YSDPFKDDPFGKIDPFGGDPFKGSDPFA-NH2 [Eps15-628–654] | 1.711 | -8.135 | -9.846 ± 0.223 | – | Kd ([1]; 25 °C, μHD in sample cell titrated with Eps15 fragment, single-site model, ± 68.3% confidence interval, read-out: Kd): 1.1 ± 0.1 µM; N (binding ratio of Eps15 fragment to μHD) [1, 5]: 0.67 ± 0.01
Ac-YSDPFVGSDPFKDDPFG-NH2 [Eps15-622–637] | 1.967 | -7.247 | -9.214 ± 0.138 | – | binding to the SGIP1 μHD (in words) [1]: significantly reduced affinity as compared with that of Eps15-530–896; N (binding ratio of Eps15 fragment to μHD) [1, 5]: 0.85 ± 0.01
Ac-YSTDPFATSSTDPFSA-NH2 [Eps15-662–676] | 1.395 | -5.327 | -6.722 ± 1.053 | – | binding to the SGIP1 μHD (in words) [1]: weakly bound to the μHD; Strength of affinity ([1]; human SGIP1 µHD (aa552–828), Supplementary Table 3, This study): low
Eps15-618–648: Eps15 fragment containing the first five DPF motifs of Eps15-618–654 (DFFQSDPFVGSDPFKDDPFGKIDPFGGDPFK; UniProt P42566 618-648, looked up, fragment) | 0.581 | -8.722 | -9.303 ± 0.257 | – | N (binding ratio of Eps15 fragment to μHD) [1, 5]: 0.71± 0.02
Eps15-640–649D645E: D645E mutant of Eps15-640–649 (Ac-YDPFGGEPFKG-NH2) | – | – | – | – | Kd [1, 6]: below detection limit
Eps15-640–649F647W: F647W mutant of Eps15-640–649 (Ac-YDPFGGDPWKG-NH2) | – | – | – | – | Kd [1, 6]: below detection limit
Eps15-640–649P641L: P641L mutant of Eps15-640–649 (Ac-YDLFGGDPFKG-NH2) | – | – | – | – | Kd [1, 6]: below detection limit
Eps15-640–649P646L: P646L mutant of Eps15-640–649 (Ac-YDPFGGDLFKG-NH2) | – | – | – | – | Kd [1, 6]: below detection limit

Molecule | -TΔS [1, 3] [kcal/mol] | ΔG [1, 3] [kcal/mol] | ΔH [1, 4] [kcal/mol] | Kd [2] [µM] | other results
Eps15-643–650: Eps15 fragment, residues 643–650, 1 DPF motif (Ac-YGGDPFKGS-NH2) | – | – | – | – | Kd [1, 6]: below detection limit
Eps15-650–659: Eps15 fragment, residues 650–659, 1 DPF motif (Ac-YSDPFASDCFF-NH2) | – | – | – | – | Kd [1, 6]: below detection limit
Eps15-797–807: Eps15 fragment spanning residues 797 to 807, 2 DPF motifs (Ac-YPDPFKLNDPFQ-NH2) | – | – | – | – | binding to the SGIP1 μHD (in words) [1]: did not; Kd [1, 6]: below detection limit
B1 | – | – | – | 80.8 | –
B2 | – | – | – | 20.2 | stoichiometry N [2]: 0.76
B3 | – | – | – | 4.9 | stoichiometry N [2]: 0.85
B4 | – | – | – | 264 | –
B5 | – | – | – | 22.4 | stoichiometry N [2]: 0.75
B6 | – | – | – | – | stoichiometry N [2]: 0.71
B7 | – | – | – | 3.2 | stoichiometry N [2]: 0.7
B8 | – | – | – | – | Kd [1, 6]: below detection limit
B9 | – | – | – | – | Kd ([1]; 25 °C, Eps15 fragment in cell titrated with SGIP1 μHD, two-site model, first (higher-affinity) site, ± 68.3% confidence interval, read-out: Kd): 0.046 ± 0.015 µM; Kd ([1]; 25 °C, Eps15 fragment in cell titrated with SGIP1 μHD, two-site model, second site, 68.3% confidence interval, read-out: Kd, second site): 16.6 ± 4.1 µM; -TΔS [1, 7]: -2.45 kcal/mol; ΔG [1, 7]: -10.012 kcal/mol; ΔH ([1]; 25 °C, fragment in cell titrated with μHD, two-site model, first site, ± 68.3% confidence interval): -7.562 ± 0.103 kcal/mol; -TΔS, second site [1, 8]: 0.328 kcal/mol; ΔG, second site [1, 8]: -6.52 kcal/mol; ΔH, second site ([1]; 25 °C, fragment in cell titrated with μHD, two-site model, second site, 68.3% confidence interval): -6.848 ± 0.772 kcal/mol; N (binding ratio of Eps15 fragment to μHD) ([1]; fragment in cell titrated with μHD, two-site model, first site (N identical for both sites), ± 68.3% confidence interval): 1.17 ± 0.02; N, second site ([1]; fragment in cell titrated with μHD, two-site model, second site (N identical for both sites), ± 68.3% confidence interval): 1.17 ± 0.02
B10 | – | – | – | 30.2 | stoichiometry N [2]: 0.66
B11 | – | – | – | 103 | –
B12 | – | – | – | 325 | –
B13 | – | – | – | 229 | –
B14 | – | – | – | 73.1 | –
